Laboratory results published in US20060093617A1, “Peptides for inducing a CTL and/or HTL response to hepatitis C virus” (Innogenetics, N.V., priority 2004, published 2006).
Where a SMILES comes first, the peptide text is derived from it.

Experiments:
[1] = target: T1, DRB1*0101 (Homo sapiens, UniProt P01903+P01911, A100R/D57E/F55L/F60I/F76Y/I96L/L162R/M171V/P40L/Q125E/R42F/V115G/Y59C); assay: Competition binding assay using soluble HLA class II
T1 construct: endogenous in cells; host or cells: cell lysate

[2] = target: T2, B*0702 (Homo sapiens, UniProt P01889); assay: Competition binding assay using soluble HLA class I; conditions: for Ki: Ki (nM), HLA-B0702 section
T2 construct: endogenous in cells

[3] = target: T3, HLA-Cw06 (Homo sapiens, UniProt P10321, A176E/A330V/C350S/L171W/L180W/L218V/M285V/M309V/M331V/N104K/P208H/Q277E/Q291P/R121W/R243W/S101N/S123Y/S297R/T329A/T363A/V319A/V328M); assay: HLA class I competition cell-based binding assay
T3 construct: endogenous in cells

[4] = target: HLA-A02 (Homo sapiens, UniProt P04439, D140Y/D185E/D98H/E176V/E277Q/G131W/G231S/I119V/I121R/I166T/I218V/L300P/L318F/N151K/N90K/P208A/P217A/Q86G/Q94H/R138H/R169H/T345S); assay: Competition binding assay using soluble HLA class I
[5] = target: T4, HLA-Cw07 (Homo sapiens, UniProt P10321); assay: HLA class I competition cell-based binding assay
T4 construct: endogenous in cells

Row | SMILES | IC50 [1] [nM] | Ki [2] [nM] | other results
1 | CC[C@H](C)[C@H](NC(=O)[C@H](Cc1ccc(O)cc1)NC(=O)CNC(=O)[C@H](CCSC)NC(=O)[C@H](CC(C)C)NC(=O)[C@H](CC(=O)O)NC(=O)[C@H](C)N)C(=O)N1CCC[C@H]1C(=O)N[C@@H](CC(C)C)C(=O)N[C@H](C(=O)NCC(=O)N[C@@H](C)C(=O)N1CCC[C@H]1C(=O)N[C@@H](CC(C)C)C(=O)NCC(=O)O)C(C)C | 8330 |  | 
2 | CC(C)C[C@H](NC(=O)[C@@H](NC(=O)[C@H](CCCNC(=N)N)NC(=O)[C@@H](NC(=O)CNC(=O)[C@H](Cc1c[nH]cn1)NC(=O)[C@H](C)NC(=O)[C@H](CC(C)C)NC(=O)[C@H](C)N)C(C)C)C(C)C)C(=O)O |  | 7950 | Ki [3]: 3310 nM; Ki [4]: 627 nM
3 | CC(C)C[C@H](NC(=O)[C@@H]1CCCN1C(=O)[C@H](C)N)C(=O)NCC(=O)NCC(=O)N[C@@H](C)C(=O)N[C@@H](C)C(=O)N[C@@H](CCCNC(=N)N)C(=O)N[C@@H](C)C(=O)O |  | 115 | IC50 [2]: 115 nM
4 | CC(C)C[C@H](NC(=O)[C@H](CCC(N)=O)NC(=O)[C@H](CO)NC(=O)[C@H](C)N)C(=O)N[C@@H](CO)C(=O)N[C@@H](C)C(=O)N1CCC[C@H]1C(=O)N[C@@H](CO)C(=O)N[C@@H](CC(C)C)C(=O)N[C@@H](CCCCN)C(=O)N[C@@H](C)C(=O)N[C@H](C(=O)N[C@@H](CS)C(=O)N[C@H](C(=O)N[C@H](C(=O)O)[C@@H](C)O)[C@@H](C)O)[C@@H](C)O | 329 |  | 
5 | CC[C@H](C)[C@H](NC(=O)[C@H](CC(N)=O)NC(=O)[C@H](CCC(N)=O)NC(=O)[C@@H](N)Cc1c[nH]cn1)C(=O)N[C@H](C(=O)N[C@@H](CC(=O)O)C(=O)N[C@H](C(=O)N[C@@H](CCC(N)=O)C(=O)N[C@@H](Cc1ccc(O)cc1)C(=O)O)C(C)C)C(C)C |  |  | Ki [5]: 14200 nM
6 | CC[C@H](C)[C@H](NC(=O)[C@H](Cc1ccc(O)cc1)NC(=O)[C@@H](N)CCCCN)C(=O)N[C@@H](CCSC)C(=O)N[C@@H](C)C(=O)N[C@@H](CS)C(=O)N[C@@H](CCSC)C(=O)N[C@@H](CO)C(=O)N[C@@H](C)C(=O)O |  |  | Ki [5]: 7210 nM
7 | CC(C)C[C@H](NC(=O)[C@H](CCCNC(=N)N)NC(=O)[C@@H]1CCCN1C(=O)CNC(=O)[C@H](CCCNC(=N)N)NC(=O)[C@H](CCCNC(=N)N)NC(=O)[C@@H]1CCCN1C(=O)[C@@H](N)CC(C)C)C(=O)O |  | 1 | 
8 | CC(C)C[C@H](NC(=O)[C@H](CCCNC(=N)N)NC(=O)[C@@H]1CCCN1C(=O)CNC(=O)[C@H](CCCNC(=N)N)NC(=O)[C@H](CCCNC(=N)N)NC(=O)[C@@H]1CCCN1C(=O)[C@@H](N)CC(C)C)C(=O)NCC(=O)O |  | 124 | IC50 [2]: 124 nM
9 | CC[C@H](C)[C@H](NC(=O)[C@H](CC(N)=O)NC(=O)CNC(=O)[C@H](CC(C)C)NC(=O)[C@H](Cc1c[nH]c2ccccc12)NC(=O)[C@H](CO)NC(=O)[C@@H](N)CC(N)=O)C(=O)N[C@H](C(=O)N[C@@H](CCSC)C(=O)N[C@@H](Cc1ccc(O)cc1)C(=O)N[C@@H](C)C(=O)N1CCC[C@H]1C(=O)N[C@H](C(=O)N[C@@H](CC(C)C)C(=O)N[C@@H](Cc1c[nH]c2ccccc12)C(=O)O)[C@@H](C)O)[C@@H](C)CC | 1.2 |  | 
10 | CC[C@H](C)[C@H](NC(=O)[C@H](CC(C)C)NC(=O)[C@H](C)NC(=O)CNC(=O)[C@@H](NC(=O)[C@H](Cc1c[nH]c2ccccc12)NC(=O)[C@@H](NC(=O)[C@H](Cc1ccc(O)cc1)NC(=O)[C@@H](N)CO)[C@@H](C)O)[C@@H](C)O)C(=O)N[C@H](C(=O)N1CCC[C@H]1C(=O)N[C@@H](CS)C(=O)N[C@@H](C)C(=O)N[C@@H](C)C(=O)N[C@@H](CCC(=O)O)C(=O)O)[C@@H](C)O | 5.63 |  | 
11 | CC(C)C[C@H](NC(=O)CNC(=O)[C@H](CCCNC(=N)N)NC(=O)[C@H](Cc1ccc(O)cc1)NC(=O)[C@H](Cc1ccc(O)cc1)NC(=O)[C@H](C)NC(=O)[C@@H](N)C(C)C)C(=O)N[C@@H](CC(=O)O)C(=O)N[C@H](C(=O)O)C(C)C |  | 1420 | Ki [3]: 231 nM
12 | CC[C@H](C)[C@H](NC(=O)[C@H](CC(N)=O)NC(=O)CNC(=O)[C@H](CC(C)C)NC(=O)[C@H](Cc1c[nH]c2ccccc12)NC(=O)[C@H](CO)NC(=O)[C@H](CC(N)=O)NC(=O)[C@@H](N)C(C)C)C(=O)N[C@H](C(=O)N[C@@H](CCSC)C(=O)N[C@@H](Cc1ccc(O)cc1)C(=O)N[C@@H](C)C(=O)N1CCC[C@H]1C(=O)N[C@H](C(=O)N[C@@H](CC(C)C)C(=O)O)[C@@H](C)O)[C@@H](C)CC | 1.42 |  | 
13 | CC[C@H](C)[C@H](NC(=O)[C@H](Cc1c[nH]cn1)NC(=O)[C@@H](NC(=O)[C@H](CC(C)C)NC(=O)CNC(=O)[C@@H](NC(=O)[C@H](Cc1ccccc1)NC(=O)[C@@H](NC(=O)[C@H](CO)NC(=O)[C@H](CCC(=O)O)NC(=O)[C@@H](N)Cc1c[nH]c2ccccc12)C(C)C)[C@@H](C)O)[C@@H](C)O)C(=O)N[C@@H](CC(=O)O)C(=O)N[C@@H](C)C(=O)N[C@@H](Cc1c[nH]cn1)C(=O)N[C@@H](Cc1ccccc1)C(=O)O | 122 |  | 
14 | CC(C)C[C@H](NC(=O)CNC(=O)[C@H](CC(C)C)NC(=O)[C@H](C)NC(=O)[C@H](CO)NC(=O)[C@H](CC(C)C)NC(=O)[C@H](CCCCN)NC(=O)[C@H](C)NC(=O)[C@H](C)N)C(=O)O (H-AAKLSALGL-OH; N-terminus and C-terminus assumed) |  | 277 | IC50 [2]: 277 nM
15 | CC(C)C[C@H](NC(=O)[C@H](C)NC(=O)[C@H](CCCNC(=N)N)NC(=O)[C@H](C)NC(=O)[C@H](C)N)C(=O)N[C@@H](C)C(=O)N[C@@H](Cc1c[nH]cn1)C(=O)NCC(=O)N[C@H](C(=O)O)C(C)C (H-AARALAHGV-OH; N-terminus and C-terminus assumed) |  | 209 | 
16 | C[C@H](N)C(=O)N1CCC[C@H]1C(=O)N[C@H](C(=O)NCC(=O)N[C@@H](CO)C(=O)NCC(=O)N[C@@H](CCCCN)C(=O)N[C@@H](CO)C(=O)N[C@H](C(=O)O)[C@@H](C)O)[C@@H](C)O (H-APTGSGKST-OH; N-terminus and C-terminus assumed) |  | 370 | IC50 [2]: 370 nM
17 | CSCC[C@H](NC(=O)[C@H](Cc1ccc(O)cc1)NC(=O)[C@H](C)NC(=O)CNC(=O)[C@H](Cc1ccccc1)NC(=O)CNC(=O)[C@H](CC(C)C)NC(=O)[C@@H](NC(=O)[C@H](C)N)[C@@H](C)O)C(=O)O (H-ATLGFGAYM-OH) |  | 13000 | 
18 | CC(C)C[C@H](NC(=O)[C@H](CCCNC(=N)N)NC(=O)[C@H](C)NC(=O)CN)C(=O)N[C@H](C(=O)N[C@H](C(=O)N[C@@H](CC(C)C)C(=O)N[C@@H](C)C(=O)N[C@H](C(=O)N[C@@H](C)C(=O)N[C@H](C(=O)N1CCC[C@H]1C(=O)N1CCC[C@H]1C(=O)NCC(=O)N[C@@H](CO)C(=O)O)[C@@H](C)O)[C@@H](C)O)C(C)C)C(C)C (H-GARLVVLATATPPGS-OH; N-terminus and C-terminus assumed) | 173 |  | 
19 | CSCC[C@H](NC(=O)CNC(=O)[C@H](CO)NC(=O)[C@@H]1CCCN1C(=O)[C@H](CCCNC(=N)N)NC(=O)[C@H](CCC(=O)O)NC(=O)CNC(=O)[C@@H]1CCCN1C(=O)[C@@H](N)[C@@H](C)O)C(=O)O (H-TPGERPSGM-OH) |  | 199 | IC50 [2]: 199 nM
20 | CC[C@H](C)[C@H](NC(=O)[C@@H](NC(=O)[C@@H](N)[C@@H](C)O)[C@@H](C)O)C(=O)N[C@@H](CCSC)C(=O)N[C@@H](C)C(=O)N[C@@H](CCCCN)C(=O)N[C@@H](CC(N)=O)C(=O)N[C@@H](CCC(=O)O)C(=O)N[C@H](C(=O)N[C@@H](Cc1ccccc1)C(=O)N[C@@H](CS)C(=O)N[C@H](C(=O)N[C@@H](CCC(N)=O)C(=O)N1CCC[C@H]1C(=O)N[C@@H](CCC(=O)O)C(=O)O)C(C)C)C(C)C (H-TTIMAKNEVFCVQPE-OH; N-terminus and C-terminus assumed) | 3730 |  | 
